These compounds were tested against T1, Recombinant human EP300 containing the bromodomain (EP300-BD (1040-1161)) (Homo sapiens, UniProt Q09472) (assay: EP300 Alphascreen binding assay).
T1 construct: Recombinant human EP300 bromodomain (EP300-BD (1040-1161)); made in house; host or cells: E. coli BL21-CodonPlus (DE3), modified pET vector
T1 sequence (Q09472 1040-1161): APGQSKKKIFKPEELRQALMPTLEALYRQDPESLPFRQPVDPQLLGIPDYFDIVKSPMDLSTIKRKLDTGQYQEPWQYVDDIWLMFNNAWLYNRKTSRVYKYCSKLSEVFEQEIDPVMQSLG
Description: EP300 Alphascreen Binding Assay
Binding of compounds of Formula (I) with EP300 was assessed using Alphascreen™ binding assay. The inhibition of the interaction between the EP300 bromodomain and its acetylated target protein was measured quantitatively using recombinant EP300 protein, an acetylated Histone 3 peptide and AlphaScreen™ technology. In absence of inhibition of the EP300 protein bound to AlphaScreen™ nickel chelate acceptor beads can interact with the acetylated Histone 3 peptide which is immobilized by the AlphaScreen™ Streptavidin coated beads. This interaction brings donor and acceptor beads in proximity. The close proximity allows the singlet oxygen produced by laser excitation of the donor beads to reach the acceptor beads and generate a luminescence signal. EP300 inhibitors result in a decrease in the proximity signal through an inhibition of the EP300—acetylated peptide interaction.
Recombinant human EP300 containing the bromodomain (EP300-BD (1040-1161)) was prepared and purified as described in protein expression and purification session. The peptide is human Histone H345-64K56Ac-Biotin (Anaspec CA, USA).
Protocol for EP300 assay: All components were prepared in buffer composed of 50 mM HEPES pH 7.5, 50 mM NaCl, 0.01% BSA, 0.01% Triton X-100, 2 mM DTT. Test compounds and DMSO vehicle were diluted 1:50 in buffer and a 4 μL volume is transferred to an Alphaplate. 5.5 μL of EP300 protein and 5.5 μL of peptide were added to wells containing 4 μL of various concentrations of test compounds of Formula (I) or DMSO vehicle in an Alphaplate (PerkinElmer GA, USA) and incubated for 1 hour at room temperature. 5 μL donor and acceptor bead mixture was then added with final concentrations of 7.5 μg/ml. 60 minutes after bead addition, Alpha signal is read on the Envision spectrometer (λEx 680 nm, λEm 520-620 nm). Final concentrations of bromodomain proteins and peptide are as shown below.
All data were normalized to the mean of 16 high and 16 low control wells on each plate. A four parameter curve fit of the following formula was then applied: Y=A+((B−A)/(1+((C/x)^D))) Where ‘A’ is the minimum, ‘B’ is the maximum, ‘C’ is the IC50 and ‘D’ is the Hill slope. Protein Expression and Purification
Recombinant human EP300 bromodomain (EP300-BD (1040-1161)) was expressed in E. coli cells (in a modified pET vector) with an N-terminal six-His tag and purified using a combination of both IMAC (Ni-affinity) and size exclusion chromatography steps.
Recombinant EP300 protein was expressed using the E. coli strain BL21-CodonPlus (DE3) (Agilent Technologies CA, USA). Cells were grown in Terrific Broth (TB) media to an OD600 of 0.7 at 37° C. at which temperature was reduced to 18° C., protein was induced with 1.0 mM isopropyl-β-D-thiogalactopyranoside (“IPTG”) for 20 hours and harvested by centrifugation at 8500×g for 20 minutes. Cells were re-suspended in 0.1M K2PO4 pH 8.0, 250 mM NaCl, 10% Glycerol, 0.75% NP-40, 25 mM Imidazole, with 0.2 mg/ml Lysozyme, 0.2 mM phenylmethanesulfonyl fluoride (“PMSF”), 25 μg/ml DNase I, incubated on ice for 30 minutes and lysed with a cell disruptor (MicroFluidics MA, USA). The lysate was clarified by centrifugation at 20,000×g for 1 hour. The protein was captured with Ni-NTA resin (Life Technologies, USA). Contaminating proteins were washed off with 50 mM HEPES pH 7.5, 500 mM NaCl, and 5% Glycerol. Following 3× wash steps, protein was eluted step wise using 10, 25, 50, 100, 150, and 250 mM Imidazole in 50 mM HEPES pH 7.5, 500 mM NaCl, and 5% glycerol. The protein was further purified using a size exclusion column (26/600 Superdex 200, GE Biosciences NJ, USA) in 10 mM HEPES pH 7.5, […].
Cc1noc(C)c1-c1cnc2c(CC3CCC3)cn(-c3ccc([N+](=O)[O-])cc3F)c2c1 [P-0130, 4-(3-(cyclobutylmethyl)-1-(2-fluoro-4-nitrophenyl)-1H-pyrrolo[3,2-b]pyridin-6-yl)-3,5-dimethylisoxazole] gave an IC50 of 8 to 1000 µM. Compound CCOc1cc(C(=O)O)cc(OCC)c1-c1cn([C@@H](C)c2ccccn2)c2ncc(-c3c(C)noc3C)cc12 [P-0147, (S)-4-(5-(3,5-dimethylisoxazol-4-yl)-1-(1-(pyridin-2-yl)ethyl)-1H-pyrrolo[2,3-b]pyridin-3-yl)-3,5-diethoxybenzoic acid] has an IC50 of 0.0001 to 1 µM. In the case of Cc1noc(C)c1-c1cnc2c(c1)c(-c1cccc(C(=O)O)n1)cn2C(C)c1ccccn1 (centres unmarked) [P-0122, 6-(5-(3,5-dimethylisoxazol-4-yl)-1-(1-(pyridin-2-yl)ethyl)-1H-pyrrolo[2,3-b]pyridin-3-yl)picolinic acid], the IC50 is reported as 1 to 8 µM. Cc1noc(C)c1-c1cnc2c(-c3ccccc3Cl)cn(C(C)(c3ccccn3)c3ccccn3)c2c1 [P-0155, 4-(3-(2-chloropheny1)-1-(1,1-di(pyridin-2-yl)ethyl)-1H-pyrrolo[3,2-b]pyridin-6-yl)-3,5-dimethylisoxazole] was tested, and the IC50 was 0.0001 to 1 µM. With Cc1noc(C)c1-c1cnc2c(c1)c(-c1cc(C(=O)O)ccn1)cn2C(C)c1ccccn1 (centres unmarked) [P-0124, 2-(5-(3,5-dimethylisoxazol-4-yl)-1-(1-(pyridin-2-yl)ethyl)-1H-pyrrolo[2,3-b]pyridin-3-yl)isonicotinic acid] the IC50 was 0.0001 to 1 µM. With Cc1noc(C)c1-c1cnc2c(c1)c(-c1cccc(C(=O)O)c1)cn2CC1(C)COC1 [P-0102, 3-(5-(3,5-dimethylisoxazol-4-yl)-1-((3-methyloxetan-3-yl)methyl)-1H-pyrrolo[2,3-b]pyridin-3-yl)benzoic acid] the IC50 was 1 to 8 µM. Work on Cc1ccc(S(=O)(=O)n2cc(-c3ccc(C(=O)O)cc3)c3cc(-c4c(C)noc4C)cnc32)cc1 [P-0006, 4-(5-(3,5-dimethylisoxazol-4-yl)-1-tosyl-1H-pyrrolo[2,3-b]pyridin-3-yl)benzoic acid] yielded an IC50 of 1 to 8 µM. In the case of CCCOc1cc(C(=O)O)cc(OCCC)c1-c1cn([C@@H](C)c2ccccn2)c2ncc(-c3c(C)noc3C)cc12 [P-0117, (S)-4-(5-(3,5-dimethylisoxazol-4-yl)-1-(1-(pyridin-2-yl)ethyl)-1H-pyrrolo[2,3-b]pyridin-3-yl)-3,5-dipropoxybenzoic acid], the IC50 is reported as 0.0001 to 1 µM. COc1cc(C(=O)O)cc(OCc2ccccc2)c1-c1cn([C@@H](C)c2ccccn2)c2ncc(-c3c(C)noc3C)cc12 [P-0135, (S)-3-(benzyloxy)-4-(5-(3,5-dimethylisoxazol-4-yl)-1-(1-(pyridin-2-yl)ethyl)-1H-pyrrolo[2,3-b]pyridin-3-yl)-5-methoxybenzoic acid] showed an IC50 of 0.0001 to 1 µM. Cc1noc(C)c1-c1cnc2c(-c3cc(C(=O)O)ccc3Cl)cn(C(C)c3ccccc3)c2c1 (centres unmarked) [P-0141, 4-chloro-3-(6-(3,5-dimethylisoxazol-4-yl)-1-(1-phenylethyl)-1H-pyrrolo[3,2-b]pyridin-3-yl)benzoic acid] was tested, and the IC50 was 0.0001 to 1 µM. Cc1noc(C)c1-c1cnc2c(c1)c(-c1ccc(C(=O)O)cc1)cn2C(c1ccccn1)C1CC1 (centres unmarked) [P-0007, 4-(1-(cyclopropyl(pyridin-2-yl)methyl)-5-(3,5-dimethylisoxazol-4-yl)-1H-pyrrolo[2,3-b]pyridin-3-yl)benzoic acid] gave an IC50 of 0.0001 to 1 µM. With Cc1noc(C)c1-c1cnc2c(c1)c(-c1c(OC(C)C)cc(C(=O)O)cc1OC(C)C)cn2[C@@H](C)c1ccccn1 [P-0118, (S)-4-(5-(3,5-dimethylisoxazol-4-yl)-1-(1-(pyridin-2-yl)ethyl)-1H-pyrrolo[2,3-b]pyridin-3-yl)-3,5-diisopropoxybenzoic acid] the IC50 was 0.0001 to 1 µM. Compound Cc1noc(C)c1-c1cnc2c(C(O)(C3CC3)C3CC3)cn(-c3ccc(C(=O)O)cc3OC(F)(F)F)c2c1 [P-0163, 4-(3-(dicyclopropyl(hydroxy)methyl)-6-(3,5-dimethylisoxazol-4-yl)-1H-pyrrolo[3,2-b]pyridin-1-yl)-3-(trifluoromethoxy)benzoic acid] has an IC50 of 0.0001 to 1 µM. Compound Cc1noc(C)c1-c1cnc2c(-c3cnn(C)c3)c(C(F)(F)F)n([C@@H](C)c3ccccn3)c2c1 [P-0160, (S)-3,5-dimethyl-4-(3-(1-methyl-1H-pyrazol-4-yl)-1-(1-(pyridin-2-yl)ethyl)-2-(trifluoromethyl)-1H-pyrrolo[3,2-b]pyridin-6-yl)isoxazole] has an IC50 of 0.0001 to 1 µM. Cc1noc(C)c1-c1cnc2c(c1)c(-c1ccc(C(=O)O)cc1OC(C)C)cn2[C@@H](C)c1ccccn1 [P-0112, (S)-4-(5-(3,5-dimethylisoxazol-4-yl)-1-(1-(pyridin-2-yl)ethyl)-1H-pyrrolo[2,3-b]pyridin-3-yl)-3-isopropoxybenzoic acid] gave an IC50 of 0.0001 to 1 µM. With Cc1noc(C)c1-c1cnc2c(c1)c(-c1cncc(C(=O)O)n1)cn2[C@@H](C)c1ccccn1 [P-0106, (S)-6-(5-(3,5-dimethylisoxazol-4-yl)-1-(1-(pyridin-2-yl)ethyl)-1H-pyrrolo[2,3-b]pyridin-3-yl)pyrazine-2-carboxylic acid] the IC50 was 1 to 8 µM. CC[C@@H](c1ccccn1)n1cc(-c2cc(C(=O)O)ccc2Cl)c2ncc(-c3c(C)noc3C)cc21 [P-0148, (S)-4-chloro-3-(6-(3,5-dimethylisoxazol-4-yl)-1-(1-(pyridin-2-yl)propyl)-1H-pyrrolo[3,2-b]pyridin-3-yl)benzoic acid] showed an IC50 of 0.0001 to 1 µM. In the case of Cc1noc(C)c1-c1cnc2c(CC3CCC3)cn(-c3ccc(C(=O)O)c(C#N)c3)c2c1 [P-0105, 2-cyano-4-(3-(cyclobutylmethyl)-6-(3,5-dimethylisoxazol-4-yl)-1H-pyrrolo[3,2-b]pyridin-1-yl)benzoic acid], the IC50 is reported as 0.0001 to 1 µM. Cc1noc(C)c1-c1cnc2c(C3=CCOCC3)cn(-c3c(Cl)cc(C(=O)O)cc3Cl)c2c1 [P-0151, 3,5-dichloro-4-(3-(3,6-dihydro-2H-pyran-4-yl)-6-(3,5-dimethylisoxazol-4-yl)-1H-pyrrolo[3,2-b]pyridin-1-yl)benzoic acid] gave an IC50 of 0.0001 to 1 µM. CCOc1cc(C(=O)O)cc(F)c1-n1cc(CC2CCC2)c2ncc(-c3c(C)noc3C)cc21 [P-0108, 4-(3-(cyclobutylmethyl)-6-(3,5-dimethylisoxazol-4-yl)-1H-pyrrolo[3,2-b]pyridin-1-yl)-3-ethoxy-5-fluorobenzoic acid] was tested, and the IC50 was 0.0001 to 1 µM. In the case of COc1ccc(C(=O)O)cc1-n1cc(CC2CCC2)c2ncc(-c3c(C)noc3C)cc21 [P-0098, 3-(3-(cyclobutylmethyl)-6-(3,5-dimethylisoxazol-4-yl)-1H-pyrrolo[3,2-b]pyridin-1-yl)-4-methoxybenzoic acid], the IC50 is reported as 0.0001 to 1 µM. Cc1noc(C)c1-c1cnc2c(c1)c(-c1ccnc(O)c1)cn2[C@@H](C)c1ccccn1 [P-0145, (S)-4-(5-(3,5-dimethylisoxazol-4-yl)-1-(1-(pyridin-2-yl)ethyl)-1H-pyrrolo[2,3-b]pyridin-3-yl)pyridin-2-ol] showed an IC50 of 1 to 8 µM. Work on COc1cc(C(=O)O)ccc1-c1cn([C@@H](C)c2ccccn2)c2cc(-c3c(C)noc3C)cnc12 [P-0142, (S)-4-(6-(3,5-dimethylisoxazol-4-yl)-1-(1-(pyridin-2-yl)ethyl)-1H-pyrrolo[3,2-b]pyridin-3-yl)-3-methoxybenzoic acid] yielded an IC50 of 0.0001 to 1 µM.
